US10669285B2, “Condensed [1,4] diazepine compounds as autotaxin (ATX) and lysophosphatidic acid (LPA) production inhibitors” (Hoffmann-La Roche Inc., priority 2014, dated 2020)

molecular target: ATX (human His-tagged) (Homo sapiens (Human), UniProt Q13822); test: Human ATX enzyme inhibition assay (fluorescence quenching, MR121 substrate); format: biochemical; conditions: inhibitory activity against ATX; 30 nM ATX, 1 μM MR121 substrate, 30° C.
Experimental: Human ATX Enzyme Inhibition Assay
ATX inhibition was measured by a fluorescence quenching assay using a specifically labeled substrate analogue (MR121 substrate). To obtain this MR121 substrate, BOC and TBS protected 6-amino-hexanoic acid (R)-3-({2-[3-(2-{2-[2-(2-amino-ethoxy)-ethoxy]-ethoxy}-ethoxy)-propionylamino]-ethoxy}-hydroxy-phosphoryloxy)-2-hydroxy-propyl ester (Ferguson et al., Org Lett 2006, 8 (10), 2023) was labeled with MR121 fluorophore (CAS 185308-24-1, 1-(3-carboxypropyl)-11-ethyl-1,2,3,4,8,9,10,11-octahydro-dipyrido[3,2-b:2′,3′-i]phenoxazin-13-ium) on the free amine of the ethanolamine side and then, after deprotection, subsequently with tryptophan on the side of the aminohexanoic acid.
Assay working solutions were made as follows:
Assay buffer (50 mM Tris-HCl, 140 mM NaCl, 5 mM KCl, 1 mM CaCl2, 1 mM MgCl2, 0.01% Triton-X-100, pH 8.0;
ATX solution: ATX (human His-tagged) stock solution (1.08 mg/mL in 20 mM bicine, pH 8.5, 0.15 M NaCl, 10% glycerol, 0.3% CHAPS, 0.02% NaN3), diluted to 1.4-2.5× final concentration in assay buffer;
MR121 substrate solution: MR121 substrate stock solution (800 μM MR121 substrate in DMSO), diluted to 2-5× final concentration in assay buffer.
Test compounds (10 mM stock in DMSO, 8 μL) were obtained in 384 well sample plates (Corning Costar #3655) and diluted with 8 μL DMSO. Row-wise serial dilutions were made by transferring 8 μL cpd solution to the next row up to […]. The compound and control solutions were mixed five times and 2 μL were transferred to 384 well assay plates (Corning Costar #3702). Then, 15 μL of 41.7 nM ATX solution was added (30 nM final concentration), mixed five times and then incubated for 15 minutes at 30° C. 10 μL of MR121 substrate solution was added (1 μM final concentration), mixed 30 times and then incubated for 15 minutes at 30° C. Fluorescence was then measured every 2 minutes for 1 hour (Perkin Elmer plate: vision multimode reader); light intensity: 2.5%; exp. time: 1.4 sec, Filter: Fluo_630/690 nm) and IC50 values were calculated from these readouts.

SMILES | IC50
O=C(/C=C/c1ccc(OC(F)F)c(F)c1)N1CCc2cc(C(=O)N3CCc4[nH]nnc4C3)nn2CC1 [Example 25, (E)-3-[4-(difluoromethoxy)-3-fluorophenyl]-1-[2-(1,4,6,7-tetrahydrotriazolo[4,5-c]pyridine-5-carbonyl)-4,5,7,8-tetrahydropyrazolo[1,5-d][1,4]diazepin-6-yl]prop-2-en-1-one] | 7 nM
O=C(OCc1ccc(OC(F)(F)F)cc1)N1CCc2cc(C(=O)N3CCc4[nH]nnc4C3)nn2CC1 [Example 5, [4-(Trifluoromethoxy)phenyl]methyl 2-(1,4,6,7-tetrahydrotriazolo[4,5-c]pyridine-5-carbonyl)-4,5,7,8-tetrahydropyrazolo[1,5-d][1,4]diazepine-6-carboxylate] | 2 nM
O=C(OCc1ccccc1)N1CCc2nc(C(=O)N3CCc4[nH]nnc4C3)cn2CC1 [Example 2, Benzyl 2-(1,4,6,7-tetrahydrotriazolo[4,5-c]pyridine-5-carbonyl)-5,6,8,9-tetrahydroimidazo[1,2-d][1,4]diazepine-7-carboxylate] | 2010 nM
O=C(OCc1ccc(OC(F)(F)F)c(F)c1)N1CCc2cc(C(=O)N3CCc4[nH]nnc4C3)nn2CC1 [Example 3, [3-Fluoro-4-(trifluoromethoxy)phenyl]methyl 2-(1,4,6,7-tetrahydrotriazolo[4,5-c]pyridine-5-carbonyl)-4,5,7,8-tetrahydropyrazolo[1,5-d][1,4]diazepine-6-carboxylate] | 18 nM
O=C(CCc1ccc(OC(F)(F)F)cc1)N1CCc2nc(C(=O)N3CCc4[nH]nnc4C3)nn2CC1 [Example 20, 1-[2-(1,4,6,7-tetrahydrotriazolo[4,5-c]pyridine-5-carbonyl)-5,6,8,9-tetrahydro-[1,2,4]triazolo[1,5-d][1,4]diazepin-7-yl]-3-[4-(trifluoromethoxy)phenyl]propan-1-one] | 6 nM
O=C(OCc1ccc(F)c(F)c1)N1CCc2cc(C(=O)N3CCc4[nH]nnc4C3)nn2CC1 [Example 30, (3,4-difluorophenyl)methyl 2-(1,4,6,7-tetrahydrotriazolo[4,5-c]pyridine-5-carbonyl)-4,5,7,8-tetrahydropyrazolo[1,5-d][1,4]diazepine-6-carboxylate] | 41 nM
O=C(CCc1ccc(OC(F)(F)F)c(Cl)c1)N1CCc2cc(C(=O)N3CCc4[nH]nnc4C3)nn2CC1 [Example 22, 3-[3-chloro-4-(trifluoromethoxy)phenyl]-1-[2-(1,4,6,7-tetrahydrotriazolo[4,5-c]pyridine-5-carbonyl)-4,5,7,8-tetrahydropyrazolo[1,5-d][1,4]diazepin-6-yl]propan-1-one] | 18 nM
N#Cc1ccc(COC(=O)N2CCc3cc(C(=O)N4CCc5[nH]nnc5C4)nn3CC2)cc1 [Example 6, 4-Cyanobenzyl 2-(4,5,6,7-tetrahydro-1H-[1,2,3]triazolo[4,5-c]pyridine-5-carbonyl)-7,8-dihydro-4H-pyrazolo[1,5-d][1,4]diazepine-6(5H)-carboxylate] | 4 nM
CC(C)c1cc(C#N)ccc1COC(=O)N1CCc2cc(C(=O)N3CCc4[nH]nnc4C3)nn2CC1 [Example 9, (4-Cyano-2-propan-2-ylphenyl)methyl 2-(1,4,6,7-tetrahydrotriazolo[4,5-c]pyridine-5-carbonyl)-4,5,7,8-tetrahydropyrazolo[1,5-d][1,4]diazepine-6-carboxylate] | 6 nM
COc1ccc(COC(=O)N2CCc3cc(C(=O)N4CCc5[nH]nnc5C4)nn3CC2)c(C)c1 [Example 33, 4-methoxy-2-methylbenzyl 2-(4,5,6,7-tetrahydro-1H-[1,2,3]triazolo[4,5-c]pyridine-5-carbonyl)-7,8-dihydro-4H-pyrazolo[1,5-d][1,4]diazepine-6(5H)-carboxylate] | 94 nM
O=C(OCc1ccc(OC(F)(F)F)c(F)c1)N1CCc2nc(C(=O)N3CCc4[nH]nnc4C3)nn2CC1 [Example 36, [3-fluoro-4-(trifluoromethoxy)phenyl]methyl 2-(1,4,6,7-tetrahydrotriazolo[4,5-c]pyridine-5-carbonyl)-5,6,8,9-tetrahydro-[1,2,4]triazolo[1,5-d][1,4]diazepine-7-carboxylate] | 6 nM
CC(C)(C)c1cc(C#N)ccc1OCC(=O)N1CCc2cc(C(=O)N3CCc4[nH]nnc4C3)nn2CC1 [Example 17, 3-tert-Butyl-4-[2-oxo-2-[2-(1,4,6,7-tetrahydrotriazolo[4,5-c]pyridine-5-carbonyl)-4,5,7,8-tetrahydropyrazolo[1,5-d][1,4]diazepin-6-yl]ethoxy]benzonitrile] | 10 nM
COc1ccc(CCC(=O)N2CCc3cc(C(=O)N4CCc5[nH]nnc5C4)nn3CC2)cc1 [Example 19, 3-(4-methoxyphenyl)-1-[2-(1,4,6,7-tetrahydrotriazolo[4,5-c]pyridine-5-carbonyl)-4,5,7,8-tetrahydropyrazolo[1,5-d][1,4]diazepin-6-yl]propan-1-one] | 151 nM
CC(C)(C)C(=O)Nc1cc(C#N)ccc1COC(=O)N1CCc2nc(C(=O)N3CCc4[nH]nnc4C3)nn2CC1 [Example 12, [4-Cyano-2-(2,2-dimethylpropanoylamino)phenyl]methyl 2-(1,4,6,7-tetrahydrotriazolo[4,5-c]pyridine-5-carbonyl)-5,6,8,9-tetrahydro-[1,2,4]triazolo[1,5-d][1,4]diazepine-7-carboxylate] | 67 nM

Continued, values first:

IC50 | SMILES
38 nM | O=C(OCc1cccc(F)c1)N1CCc2cc(C(=O)N3CCc4[nH]nnc4C3)nn2CC1 [Example 29, 3-fluorobenzyl 2-(4,5,6,7-tetrahydro-1H-[1,2,3]triazolo[4,5-c]pyridine-5-carbonyl)-7,8-dihydro-4H-pyrazolo[1,5-d][1,4]diazepine-6(5H)-carboxylate]
50 nM | O=C(CCc1ccc(OC(F)(F)F)c(Cl)c1)N1CCc2nc(C(=O)N3CCc4[nH]nnc4C3)nn2CC1 [Example 23, 3-[3-chloro-4-(trifluoromethoxy)phenyl]-1-[2-(1,4,6,7-tetrahydrotriazolo[4,5-c]pyridine-5-carbonyl)-5,6,8,9-tetrahydro-[1,2,4]triazolo[1,5-d][1,4]diazepin-7-yl]propan-1-one]
15 nM | O=C(OCc1ccc(OC(F)(F)F)cc1)N1CCc2nc(C(=O)N3CCc4[nH]nnc4C3)nn2CC1 [Example 11, [4-(Trifluoromethoxy)phenyl]methyl 2-(1,4,6,7-tetrahydrotriazolo[4,5-c]pyridine-5-carbonyl)-5,6,8,9-tetrahydro-[1,2,4]triazolo[1,5-d][1,4]diazepine-7-carboxylate]
60 nM | N#Cc1ccc(COC(=O)N2CCc3cc(C(=O)N4CCc5[nH]nnc5C4)nn3CC2)c(F)c1 [Example 8, 4-Cyano-2-fluorobenzyl 2-(4,5,6,7-tetrahydro-1H-[1,2,3]triazolo[4,5-c]pyridine-5-carbonyl)-7,8-dihydro-4H-pyrazolo[1,5-d][1,4]diazepine-6(5H)-carboxylate]
17 nM | O=C(OCc1ccc(OC(F)(F)F)cc1)N1CCc2nc(C(=O)N3CCc4[nH]nnc4C3)cn2CC1 [Example 13, [4-(Trifluoromethoxy)phenyl]methyl 2-(1,4,6,7-tetrahydrotriazolo[4,5-c]pyridine-5-carbonyl)-5,6,8,9-tetrahydroimidazo[1,2-d][1,4]diazepine-7-carboxylate]
7 nM | O=C(OCc1ccc(C2CC2)cc1)N1CCc2cc(C(=O)N3CCc4[nH]nnc4C3)nn2CC1 [Example 34, 4-cyclopropylbenzyl 2-(4,5,6,7-tetrahydro-1H-[1,2,3]triazolo[4,5-c]pyridine-5-carbonyl)-7,8-dihydro-4H-pyrazolo[1,5-d][1,4]diazepine-6(5H)-carboxylate]
76 nM | O=C(OCc1ccc(F)cc1)N1CCc2cc(C(=O)N3CCc4[nH]nnc4C3)nn2CC1 [Example 28, 4-fluorobenzyl 2-(4,5,6,7-tetrahydro-1H-[1,2,3]triazolo[4,5-c]pyridine-5-carbonyl)-7,8-dihydro-4H-pyrazolo[1,5-d][1,4]diazepine-6(5H)-carboxylate]
